Measured values as given in patent publication EP1355153A1, “Screening method for agents against cardiovascular diseases” (NAMAXX GENOMICS GMBH, priority 2002, dated 2003).

System: heart of the chick embryo
Test: Relative stroke volume of the chick embryo heart by video microscopy (decrease by isoproterenol, rescue by metoprolol)
Assay type: in vivo, chicken
Conditions: for % remaining stroke volume: 50 µL isoproterenol 1 mM topically, followed by 20 µL metoprolol 15 mM or water-dimethylsulfoxide mix (isoproterenol alone), after 2 minutes at 22°C; for reduction of the stroke volume: isoproterenol alone or applied with metoprolol
Procedure: Fertilized Bovans Goldline brown chicken eggs (12 hrs after laying, kept at 18°C) were incubated at 38°C and 45 % humidity during 72 hrs (Motorbruter 126-EM, Bruja). The eggshell was then broken and the egg white, the yolk and the embryo were removed and placed in a Petri dish (Greiner, 9.4 cm diameter). This Petri dish was placed in a bigger Petri dish (Greiner, 14 cm diameter) containing water and an incubation is performed at 38°C and 45 % humidity for 24 hrs or 48 hrs. The relative stroke volume of the heart of the chick embryo was then estimated by video microscopy using a binocular (SZX-ZB9, Olympus), a CCD camera (F-View, Soft Imaging Systems) and an image analysis software (AnalySIS Auto Software, Soft Imaging Systems). The beating heart of the embryo was filmed and the grey density of the heart area under systole was subtracted from the density of the heart area under diastole. By performing said subtraction, the so-called "relative stroke volume" is obtained, which represents a relative value instead of a volume.
50 µL of a isoproterenol (Sigma) solution (1mM, water) was then topically applied on the surface of the embryo, followed by 20 µL metoprolol (Sigma) solution (15 mM, Vol-90 % water, 10 % dimethylsulfoxide). Metoprolol is a marketed drug for human use against heart failure (M. Andrejak and M. Slama, Presse Med. 27:2025-30 (1998)). After 2 minutes at 22°C, the heart was monitored and the relative stroke volume was measured. The same experiment was performed by replacing the metoprolol solution by a water-dimethylsulfoxide mix (90 %-10 %) in order to investigate the effect of isoproterenol alone. Controls were performed with untreated embryos. The test groups of the 96 hrs old embryos (Table 1) comprise seven embryos each, while the test groups of the 120 hrs old embryos (Table 2) comprise five embryos each.

[1] = 96 hrs old embryos, after 2 minutes
[2] = 120 hrs old embryos, after 2 minutes incubation

| Compound | % remaining stroke volume (96 hrs old embryos (n=7)) | reduction of the stroke volume [1] | % remaining stroke volume (120 hrs old embryos (n=5)) | reduction of the stroke volume [2] |
| --- | --- | --- | --- | --- |
| CC(C)NCC(O)c1ccc(O)c(O)c1 (centres unmarked) [Isoproterenol, isoproterenol] | 25,5% | 75% | 27,2% | 72% |
| COCCc1ccc(OCC(O)CNC(C)C)cc1 (centres unmarked) [metoprolol] | 57,0% | 43% | 58,8% | 41% |
